Laboratory results as given in ChEMBL document CHEMBL1201862, “PubChem BioAssay data set” (2004).
The source made the active and inactive calls.

Columns and labels:
Assay type in all cases: functional
[1] = Luminescence Cell-Based Dose Retest to Confirm Inhibitors of Cancer Stem Cells. [Related pubchem assays (depositor defined):AID2717, AID2721]; conditions: Homo sapiens
[2] = biological target: T1, Microphthalmia-associated transcription factor (Homo sapiens, UniProt O75030); experiment: TRPM1 promoter luciferase signal decrease, dose response, MITF inhibitor project, cell-based, SK-MEL-5, cherry-picked, set 3 (AID 493073)
T1 sequence (O75030 whole entry): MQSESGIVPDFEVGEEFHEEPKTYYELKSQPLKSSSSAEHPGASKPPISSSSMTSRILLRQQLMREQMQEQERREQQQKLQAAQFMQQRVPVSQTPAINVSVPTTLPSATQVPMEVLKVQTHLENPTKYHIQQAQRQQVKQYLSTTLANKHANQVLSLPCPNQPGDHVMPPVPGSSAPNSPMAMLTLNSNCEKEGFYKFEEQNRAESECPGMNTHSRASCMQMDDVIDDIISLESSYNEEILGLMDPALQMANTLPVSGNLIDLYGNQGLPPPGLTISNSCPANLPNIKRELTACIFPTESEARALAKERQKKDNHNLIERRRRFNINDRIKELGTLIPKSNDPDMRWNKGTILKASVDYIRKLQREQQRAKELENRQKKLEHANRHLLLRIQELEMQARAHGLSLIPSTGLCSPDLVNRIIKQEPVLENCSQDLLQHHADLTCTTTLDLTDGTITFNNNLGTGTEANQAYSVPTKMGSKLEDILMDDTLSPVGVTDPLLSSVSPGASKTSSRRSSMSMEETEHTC

Melanocortin receptor 4 = Melanocortin receptor 4 (Homo sapiens, UniProt P32245); experiment: MC4R antagonist potency on cAMP, dose response, cell-based, TR-FRET, biased antagonists (AID 602298);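 further: antagonist potency against agonist-stimulated cAMP production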
[3] = nonselective inhibitors of cellular cAMP signaling, dose response, counter-screen for MC4R biased antagonist project, cell-based, TR-FRET cAMP detection (AID 602305);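 further: U2OS cells stimulated with forskolin near its EC80 as the cAMP inducer; potency is for inhibition of forskolin-stimulated cAMP signaling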
[4] = biological target: Neuropeptides B/W receptor type 1 (Homo sapiens, UniProt P48145); experiment: GPR7 antagonist potency, late-stage follow-up, cell-based, fluorescence, dose response, set 5 (AID 588566)
[5] = biological target: Melanin-concentrating hormone receptor 1 (Homo sapiens, UniProt Q99705); experiment: Late-stage fluorescence-based counterscreen for antagonists of the G-protein coupled receptor 7 (GPR7): cell-based dose response assay to identify antagonists of the melanin-concentrating hormone receptor 1 (MCHR1) Set 5.
Sequence of Melanin-concentrating hormone receptor 1 (Q99705 whole entry): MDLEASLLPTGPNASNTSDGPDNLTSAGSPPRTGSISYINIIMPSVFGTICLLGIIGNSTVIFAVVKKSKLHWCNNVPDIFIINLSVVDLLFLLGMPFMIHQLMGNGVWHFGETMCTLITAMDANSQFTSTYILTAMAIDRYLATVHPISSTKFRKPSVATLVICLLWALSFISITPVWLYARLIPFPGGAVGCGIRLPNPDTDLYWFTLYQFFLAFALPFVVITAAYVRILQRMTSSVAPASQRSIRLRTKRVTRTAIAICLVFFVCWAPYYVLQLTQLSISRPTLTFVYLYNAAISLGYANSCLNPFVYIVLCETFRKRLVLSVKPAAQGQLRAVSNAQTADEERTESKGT

Sequence of Neuropeptides B/W receptor type 1 (P48145 whole entry): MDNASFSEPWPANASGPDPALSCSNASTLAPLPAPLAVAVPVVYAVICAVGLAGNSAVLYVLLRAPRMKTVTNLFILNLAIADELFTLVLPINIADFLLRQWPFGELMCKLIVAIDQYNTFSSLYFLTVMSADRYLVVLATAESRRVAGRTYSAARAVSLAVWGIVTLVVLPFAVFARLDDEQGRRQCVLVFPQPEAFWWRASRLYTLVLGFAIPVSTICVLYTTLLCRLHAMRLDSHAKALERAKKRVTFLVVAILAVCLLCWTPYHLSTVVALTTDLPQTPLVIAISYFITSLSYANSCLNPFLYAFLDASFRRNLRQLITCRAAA
Sequence of Melanocortin receptor 4 (P32245 whole entry): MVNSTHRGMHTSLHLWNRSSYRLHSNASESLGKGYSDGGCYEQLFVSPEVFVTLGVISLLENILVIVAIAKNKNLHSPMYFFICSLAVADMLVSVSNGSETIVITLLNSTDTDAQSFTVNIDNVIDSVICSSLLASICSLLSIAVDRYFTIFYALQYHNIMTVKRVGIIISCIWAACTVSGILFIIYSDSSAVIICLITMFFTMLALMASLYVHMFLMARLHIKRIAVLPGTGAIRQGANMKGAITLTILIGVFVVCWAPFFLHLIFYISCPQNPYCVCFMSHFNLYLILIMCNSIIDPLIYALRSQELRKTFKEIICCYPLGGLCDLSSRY

IC50 [4] | IC50 [5] | SMILES | AC50 [1] | AC50 [2] | IC50 (Melanocortin receptor 4) | IC50 [3]
– | – | CCOC(=O)C(=Cc1ccc(-n2ccnc2)cc1)C(=O)OCC | 2.95 µM (active) | 9.38 µM (active) | > 64.6 µM (inactive) | > 64.6 µM (inactive)
0.571 µM (active) | 7.76 µM (active) | CCOC(=O)C(C#N)c1c(Cl)cnn(Cc2cccc3ccccc23)c1=O (stereo unspecified) | – | – | – | –
